Test [1] relates to MDA-MB-231. The test is described as follows: Cytotoxicity against human MDA-MB-231 cells assessed as normal nuclei at 5 uM by DAPI staining based fluorescence microscopic analysis (reference value: 93.33 to 95.83%). In kind it is functional.
Test [2] relates to MDA-MB-231. The test can be described thus: Genotoxicity in human MDA-MB-231 cells assessed as induction of DNA damage at 3 uM incubated for 24 hrs by comet assay. It counts as functional, cell-based.
For another test, the system named is HEK-293T. The test is described as follows: Cytotoxicity against human HEK293T cells assessed as reduction in cell viability incubated for 48 hrs by MTT assay. It counts as cell-based.
Test [3] deals with MDA-MB-231. The test is described as follows: Cytotoxicity against human MDA-MB-231 cells assessed as apoptotic nuclei at 1 uM by DAPI staining based fluorescence microscopic analysis (reference value: 4.17 to 14.29%). It counts as functional.
Test [4] relates to MDA-MB-231. The test is described as follows: Cytotoxicity against human MDA-MB-231 cells assessed as reduction in cell viability incubated for 48 hrs by MTT assay. In kind it is functional, cell-based. The note with it: Homo sapiens, MDA-MB-231, 48 h; read-out: IC50. For orientation: Formazan colour is commonly taken as a measure of viable cells.
Test [5] relates to MDA-MB-231. The test can be described thus: Cytotoxicity against human MDA-MB-231 cells assessed as increase in deformation and shrinkage of nuclei by DAPI staining-based fluorescence microscopic analysis. It counts as functional, cell-based. The note with it: dose 0.5-2.5 µM.
Test [6] concerns MDA-MB-231. The test can be described thus: Cytotoxicity against human MDA-MB-231 cells assessed as normal nuclei at 1 uM by DAPI staining based fluorescence microscopic analysis (reference value: 85.71 to 95.83%). It counts as functional.
The test system of test [7] is MDA-MB-231. The test is described as follows: Induction of apoptosis in human MDA-MB-231cells assessed as downregulation of Bcl-xl level by measuring fold change in Bcl-xl expression by Western blot analysis relative to control. In kind it is functional.
A further test relates to MCF-10A. The test is described as follows: Cytotoxicity against human MCF-10A cells. It counts as cell-based.
The test system of test [8] is MDA-MB-231. The test can be described thus: Cytotoxicity against human MDA-MB-231 cells assessed as normal nuclei at 2 uM by DAPI staining based fluorescence microscopic analysis (reference value: 85.71 to 95.83%). It counts as functional.
A short description of test [9]: Cytotoxicity against human H357 cells assessed as reduction in cell viability incubated for 48 hrs by MTT assay. To be noted: Homo sapiens, H357, 48 h; read-out: IC50. It counts as functional, cell-based.
Test [10] concerns MDA-MB-231. The test is described as follows: Cytotoxicity against human MDA-MB-231 cells assessed as normal nuclei at 4 uM by DAPI staining based fluorescence microscopic analysis (reference value: 93.33 to 95.83%). In kind it is functional.
In test [11] the test system is MDA-MB-231. The test is described as follows: Induction of apoptosis in human MDA-MB-231cells as increase in cleaved PARP1 level by measuring fold change in cleaved PARP1 expression by Western blot analysis relative to control. It counts as functional.
In test [12] the test system is MDA-MB-231. The test is described as follows: Induction of apoptosis in human MDA-MB-231 cells assessed as upregulation of Bax level by measuring fold change in Bax expression by Western blot analysis relative to control. In kind it is functional. On the technique in general: In western blotting, separated proteins are transferred to a membrane and probed.
Test [13] concerns MDA-MB-231. The test can be described thus: Cytotoxicity against human MDA-MB-231 cells assessed as apoptotic nuclei at 4 uM by DAPI staining based fluorescence microscopic analysis (reference value: 4.17 to 6.67%). In kind it is functional.
In test [14] the test system is MDA-MB-231. The test is described as follows: Cytotoxicity against human MDA-MB-231 cells assessed as apoptotic nuclei at 2 uM by DAPI staining based fluorescence microscopic analysis (reference value: 4.17 to 14.29%). In kind it is functional.
The subject of test [15] is MDA-MB-231. The test is described as follows: Cytotoxicity against human MDA-MB-231 cells assessed as normal nuclei at 3 uM by DAPI staining based fluorescence microscopic analysis (reference value: 93.33 to 95.83%). In kind it is functional.
The test system of test [16] is MDA-MB-231. The test is described as follows: Cytotoxicity against human MDA-MB-231 cells assessed as apoptotic nuclei at 5 uM by DAPI staining based fluorescence microscopic analysis (reference value: 4.17 to 6.67%). In kind it is functional.
In a further test the test system is MCF7. The test can be described thus: Cytotoxicity against human MCF7 cells assessed as reduction in cell viability incubated for 48 hrs by MTT assay. The note with it: Homo sapiens, MCF7, 48 h; read-out: IC50. It counts as functional, cell-based.
Test [17] concerns MDA-MB-231. The test is described as follows: Cytotoxicity against human MDA-MB-231 cells assessed as apoptotic nuclei at 3 uM by DAPI staining based fluorescence microscopic analysis (reference value: 4.17 to 6.67%). In kind it is functional.
Test [18] concerns MDA-MB-231. The test is described as follows: Cytotoxicity against human MDA-MB-231 cells assessed as reduction in cell survival by clonogenic assay. It counts as functional, cell-based.

Calls of active or inactive are those of the source. The rule behind the calls is not given here.

Regarding `O=C1C=C(Nc2cccc3ccccc23)C(=O)c2ccccc21`, the Activity was 11.11% in the test on MDA-MB-231 [1]; 11.9% in the test on MDA-MB-231 [3]; “Dose-Dependent Effect” in the test on MDA-MB-231 [5]; 88.1% with MDA-MB-231 [6]; 71.43% in the test with MDA-MB-231 [8]; 25.64% with MDA-MB-231 [10]. In addition, the Activity in the test on MDA-MB-231 [13] is 74.36%; in the test with MDA-MB-231 [14], 28.57%; in the test on MDA-MB-231 [15] it was 44.44%; with MDA-MB-231 [16], 88.89%; in the test on MDA-MB-231 [17], 55.56%. Besides, the result in the test on MDA-MB-231 [2] was Active. Besides, the 50% inhibitory concentration (IC50) came to 5.6 µM in the test with HEK-293T; 3.2 µM in the test on MDA-MB-231 [4]; 101 µM in the test on MCF-10A; 5.8 µM in test [9]; 3.1 µM in the test on MCF7; 2.4 µM in the test on MDA-MB-231 [18]. In addition, the “fold change (FC)” value in the test with MDA-MB-231 [7] is 0.4; in the test on MDA-MB-231 [11] it was 0.8; in the test on MDA-MB-231 [12], 2.3.
`O=C1c2cccc(O)c2C(=O)c2c1[nH]c1ccccc21`: the Activity in the test with MDA-MB-231 [1] is 26.67%; in the test on MDA-MB-231 [3], 25.93%; in the test on MDA-MB-231 [5], “Dose-Dependent Effect”; with MDA-MB-231 [6], 74.07%; in the test on MDA-MB-231 [8], 63.64%; in the test with MDA-MB-231 [10], 44.44%. In addition, the Activity was found to be 55.56% in the test with MDA-MB-231 [13]; 36.36% in the test with MDA-MB-231 [14]; 51.52% in the test with MDA-MB-231 [15]; 73.33% in the test with MDA-MB-231 [16]; 48.48% in the test on MDA-MB-231 [17]. Further, in the test on MDA-MB-231 [2], the outcome was Active. In addition, the IC50 in the test with HEK-293T stood at 4 µM; with MDA-MB-231 [4], 3.2 µM; in the test with MCF-10A, 105 µM; in test [9] it was 3.6 µM; in the test on MCF7, 3 µM; in the test on MDA-MB-231 [18] it was 2.7 µM. Also, the “fold change (FC)” value in the test with MDA-MB-231 [7] worked out at 0.2; with MDA-MB-231 [11], 1; in the test with MDA-MB-231 [12], 2.2.

Usually IC50 stands for the point on the concentration scale where inhibition reaches its midpoint.

The record behind these values is ChEMBL document CHEMBL4808219, “Exploration of Benzo[b]carbazole-6,11-diones as anticancer agents: Synthesis and studies of hTopoIIα inhibition and apoptotic effects” (Bioorg Med Chem Lett, 2021).
